Columns and labels:
[1] = tested on: CFA inflammatory pain model of mice; test: CFA-induced inflammatory (chronic) pain model; type: in vivo, ICR mice; conditions: for Paw withdrawal threshold (PWT) at 1.5 h: 1.5 h post drug, 24 h after CFA
Procedure: The chronic pain model of mice was often used to simulate persistent pain in humans. In this model, chronic persistent pain was induced by injecting complete Freund’s adjuvant (CFA) into the right hind foot of mice. […] The chronic analgesic potential of WN2-R was evaluated using both i.g. and i.m. methods (n = 4). When administered by i.g., the PWTs of the WN2-R group and the PF-05089771 group reached their peak at 1.5 and 1 h after administration, respectively, and subsequently declined to the same level as the saline group at 2.5 h (Fig. 6D). […] When administered i.m., both the WN2-R and PF-05089771 groups reached peak PWTs at 1.5 h, and declined to the saline group level at 3 h (Fig. 6K). […] The mechanical allodynia of ICR mice (2 male and 2 female) was assessed prior to model construction using von Frey fibers according to the up–down method. Mice with paw withdraw thresholds (PWTs) remarkably deviating from the mean value were excluded from further experiments. Subsequently, 15 μl of CFA was unilaterally injected into the intraplantar surface of the right hind paw of each mice. After 24 h, the PWTs of the mice were assessed. During the i.g. administration of drugs or saline, PWTs were measured 0, 0.5, 1, 1.5, 2, and 2.5 h post drugs/saline administration. Similarly, during i.m. administration, PWTs were measured at 0, 0.5, 1, 1.5, 2, 2.5, and 3 h post drugs/saline administration.

[2] = tested on: acetic acid writhing pain model in mice; test: Acetic acid-induced writhing test; type: in vivo, ICR mice; conditions: 15 min before acetic acid, writhing counted 30 min
Text: Acute pain was a common type of pain with considerable value for drug development. Here, 2 acute inflammatory pain models were used to verify the acute analgesic effect of WN2-R. One such model, the acetic acid writhing pain model in mice, is a well-established acute visceral pain model. It simulates clinically relevant intestinal discomfort by stimulating the abdominal mucosa and intestine with acetic acid and has been extensively used to screen analgesic or anti-inflammatory drugs. Based on this model, we evaluated the acute analgesic effect of WN2-R using 2 drug delivery methods, i.g. and […] (n = 6). […] Furthermore, the analgesic effect of WN2-R at the same dose was similar to that of the positive control drug PF-05089771, with no significant difference between these two. […] Three male and 3 female ICR mice were used in the acetic acid-induced writhing test. Mice were preadministered with either WN2-R (5 mg/kg i.g., 1 mg/kg i.m.), PF05089771 (5 mg/kg i.g., 1 mg/kg i.m.), or saline 15 min before i.p. injection of 0.2 ml of acetic acid (0.8%, V/V). Each mouse was then placed in an individual open polyvinyl cage (30 cm × 40 cm × 30 cm). The number of writhing responses, characterized by a wave of abdominal muscle contraction followed by hind limb extension, was recorded for 30 min after acetic acid injection. These responses served as an indication of nociceptive intensity. The percentage of inhibition was calculated using the following equation: Inhibition% = (Writhing Numbervehicle – Writhing Numberdrug)/Writhing Numbervehicle × 100% [15, 47].

[3] = tested on: formalin-induced acute inflammatory pain model in mice; test: Formalin-induced inflammation pain model; type: in vivo, ICR mice; conditions: 30 min before formalin
Procedure: The formalin-induced acute inflammatory pain model in mice, achieved through the plantar injection of formalin aqueous solution, is another widely used model for acute inflammatory pain. This model comprises 2 stages: an initial phase ([…]) where pain is triggered by formalin's direct stimulation of nociceptive receptors on sensory neurons, followed by a second phase (15 to 40 min) characterized by persistent inflammatory pain due to tissue damage. Similarly, both i.g. and i.m. methods were used to evaluate the effect of WN2-R in this model (n = 6) (Fig. 6B and I). […] These findings were consistent across repeated experiments.
To induce the pain response, 20 μl of formalin (5%, w/v) was injected subcutaneously into the right hind paw of ICR mice (3 male and 3 female). Prior to the formalin injection, mice were preadministered with WN2-R (5 mg/kg i.g., 1 mg/kg i.m.), PF05089771 (5 mg/kg i.g., 1 mg/kg i.m.), or saline 30 min beforehand. The duration of licking/biting the injected paw was recorded every 5 min, commencing immediately after the formalin injection and continuing for 40 min. Phase I and II in this assay corresponded to the nociceptive response observed between 0 and 5 min and between 10 and 40 min, respectively.

[4] = parameters: method as in PMID 28682065; conditions: positive control drug; cited from earlier work
[5] = tested on: SNI neuropathic pain model in mice; test: Spared nerve injury (SNI) neuropathic pain model; type: in vivo, C57 mice
Text: Peripheral nerve injury models were developed to investigate the mechanisms of neuropathic pain. One such model, the spared nerve injury (SNI) neuropathic pain model in mice, involved ligating and transecting the […] and tibial nerves within the […] nerve, while leaving the sural nerve untouched. […] To evaluate the neuroanalgesic potential of WN2-R in this model, both i.g. and i.m. routes were used to evaluate the neuroanalgesic effect of WN2-R in this model (n = 5). […] In contrast, PF-05089771 reached its peak at 1 h (PWTs = 1.08 g) but then rapidly lost its efficacy, resembling the saline control group after 1 h. Throughout the experiment, the PWTs of the WN2-R group remained consistently higher than that of the PF-05089771 group (Fig. 6F and G). […] Subsequently, the efficacy of both drugs gradually declined, converging with the saline group after 3 h. Throughout the entire dosing period, the PWTs of the WN2-R group were slightly higher than that of the PF-05089771 group (Fig. 6M and N). […] To elucidate the time course of pain hypersensitivity induced by SNI, the behavioral responses (mechanical testing with von Frey fibers) were measured before surgery (baseline value) in C57 mice (5 female). Then, the mice underwent SNI surgery, which involved ligation and axotomy of the common peroneal and tibial nerves, while sparing the sural nerve. Sham-operated mice served as controls, with their nerves remaining intact. To confirm the presence of pain hypersensitivity in the SNI group, behavioral testing was carried out 14 days after SNI in each animal. Post drugs/saline administration, PWTs were measured at 0, 0.5, 1, 1.5, 2, 2.5, and 3 h for the i.g. route, and at 0, 0.5, 1, 2, 3, and 4 h for the i.m. route.

Nc1[nH]ncc1-c1cc(Cl)ccc1Oc1cc(F)c(S(=O)(=O)Nc2cscn2)cc1Cl [PF-05089771, 4-[2-(5-amino-1H-pyrazol-4-yl)-4-chlorophenoxy]-5-chloro-2-fluoro-N-1,3-thiazol-4-ylbenzenesulfonamide, reference compound]
Time at which PWT declined to the saline group level ([1]; i.g.): 2.5 h | Time of peak PWT after administration ([1]; i.g.): 1 h | Paw withdrawal threshold (PWT) at 1.5 h ([1]; i.g.): 1.32 g | Time at which PWT declined to the saline group level ([1]; i.m.): 3 h | Time of peak PWT after administration ([1]; i.m.): 1.5 h | Paw withdrawal threshold (PWT) at 1.5 h ([1]; i.m.): 1.83 g | Analgesic rate (normalized number of writhing) ([2]; i.g., 5 mg/kg): 53.5% | Analgesic rate (normalized number of writhing) ([2]; i.p. (method: 1 mg/kg i.m.)): 51.9% | Licking time in phase I vs saline ([3]; i.g., 5 mg/kg): significantly reduced licking time | Licking time in phase II vs saline ([3]; i.g., 5 mg/kg): decreased effectiveness | Licking time in phase I vs saline ([3]; i.m., 1 mg/kg): significantly reduced licking time | Licking time in phase II vs saline ([3]; i.m., 1 mg/kg): significantly reduced licking time | F (bioavailability) [4]: 27% | Time of peak efficacy ([5]; i.g.): 1 h | Paw withdrawal threshold (PWTs) ([5]; i.g., 1 h post drug application, 14 days after SNI): 1.08 g | Time after which efficacy converged with the saline group ([5]; i.m.): 3 h | Time of peak efficacy ([5]; i.m.): 1 h | Paw withdrawal threshold (PWTs) at peak efficacy ([5]; i.m., 1 h post drug application, 14 days after SNI): 1.30 g
